{"source": "BindingDB's records for doi:10.1021/acs.jnatprod.9b01022", "about": "(Taipei Chang Gung Memorial Hospital, 2020)", "key": {"[1]": {"experiment": "Reversal of human ABCG2-mediated multidrug resistance in HEK293/R482 cells assessed as effect on mitoxantrone-induced cytotoxicity by measuring mitoxantrone IC50 at 0.5 uM after 72 hrs by CCK8 assay (Rvb = 50.66 +/- 6.88 nM)"}, "[2]": {"experiment": "Reversal of human ABCG2-mediated multidrug resistance in HEK293/R482 cells assessed as effect on topotecan-induced cytotoxicity by measuring topotecan IC50 at 2 uM after 72 hrs by CCK8 assay (Rvb = 201.31 +/- 25.89 nM)"}, "[3]": {"experiment": "Reversal of ABCG2 (unknown origin)-mediated multidrug resistance in human H460-MX20 cells assessed as effect on topotecan-induced cytotoxicity by measuring topotecan IC50 at 0.5 uM after 72 hrs by MTT assay (Rvb = 1319.20 +/- 356.14 nM)"}, "[4]": {"experiment": "Reversal of ABCG2 (unknown origin)-mediated multidrug resistance in human H460-MX20 cells assessed as effect on mitoxantrone-induced cytotoxicity by measuring mitoxantrone IC50 at 2 uM after 72 hrs by MTT assay (Rvb = 1160.60 +/- 365.72 nM)"}, "[5]": {"experiment": "Reversal of ABCG2 (unknown origin)-mediated multidrug resistance in human S1-M1-80 cells assessed as effect on mitoxantrone-induced cytotoxicity by measuring mitoxantrone IC50 at 0.5 uM after 72 hrs by MTT assay (Rvb = 73.62 +/- 7.20 uM)"}, "[6]": {"experiment": "Reversal of ABCG2 (unknown origin)-mediated multidrug resistance in human H460-MX20 cells assessed as effect on mitoxantrone-induced cytotoxicity by measuring mitoxantrone IC50 at 1 uM after 72 hrs by MTT assay (Rvb = 1160.60 +/- 365.72 nM)"}, "[7]": {"experiment": "Reversal of human ABCG2-mediated multidrug resistance in HEK293/R482 cells assessed as effect on mitoxantrone-induced cytotoxicity by measuring mitoxantrone IC50 at 3 uM after 72 hrs by CCK8 assay (Rvb = 50.66 +/- 6.88 nM)"}, "[8]": {"experiment": "Reversal of ABCG2 (unknown origin)-mediated multidrug resistance in human H460-MX20 cells assessed as effect on mitoxantrone-induced cytotoxicity by measuring mitoxantrone IC50 at 3 uM after 72 hrs by MTT assay (Rvb = 1160.60 +/- 365.72 nM)"}, "[9]": {"experiment": "Reversal of ABCG2 (unknown origin)-mediated multidrug resistance in human H460-MX20 cells assessed as effect on topotecan-induced cytotoxicity by measuring topotecan IC50 at 2 uM after 72 hrs by MTT assay (Rvb = 1319.20 +/- 356.14 nM)"}, "[10]": {"experiment": "Reversal of ABCG2 (unknown origin)-mediated multidrug resistance in human H460-MX20 cells assessed as effect on mitoxantrone-induced cytotoxicity by measuring mitoxantrone IC50 at 0.5 uM after 72 hrs by MTT assay (Rvb = 1160.60 +/- 365.72 nM)"}, "[11]": {"experiment": "Reversal of human ABCG2-mediated multidrug resistance in HEK293/R482 cells assessed as effect on mitoxantrone-induced cytotoxicity by measuring mitoxantrone IC50 at 1 uM after 72 hrs by CCK8 assay (Rvb = 50.66 +/- 6.88 nM)"}, "[12]": {"experiment": "Reversal of ABCG2 (unknown origin)-mediated multidrug resistance in human H460-MX20 cells assessed as effect on topotecan-induced cytotoxicity by measuring topotecan IC50 at 3 uM after 72 hrs by MTT assay (Rvb = 1319.20 +/- 356.14 nM)"}, "[13]": {"experiment": "Reversal of ABCG2 (unknown origin)-mediated multidrug resistance in human S1-M1-80 cells assessed as effect on topotecan-induced cytotoxicity by measuring topotecan IC50 at 2 uM after 72 hrs by MTT assay (Rvb = 10.14 +/- 2.820 uM)"}, "[14]": {"experiment": "Reversal of human ABCC1-mediated multidrug resistance in HEK293/MRP1 cells assessed as effect on etoposide-induced cytotoxicity by measuring etoposide IC50 at 1 uM after 72 hrs by CCK8 assay (Rvb = 63.34 +/- 7.92 uM)"}, "[15]": {"experiment": "Reversal of human ABCG2-mediated multidrug resistance in HEK293/R482 cells assessed as effect on topotecan-induced cytotoxicity by measuring topotecan IC50 at 3 uM after 72 hrs by CCK8 assay (Rvb = 201.31 +/- 25.89 nM)"}, "[16]": {"experiment": "Reversal of ABCG2 (unknown origin)-mediated multidrug resistance in human H460-MX20 cells assessed as effect on topotecan-induced cytotoxicity by measuring topotecan IC50 at 1 uM after 72 hrs by MTT assay (Rvb = 1319.20 +/- 356.14 nM)"}, "[17]": {"experiment": "Reversal of ABCG2 (unknown origin)-mediated multidrug resistance in human S1-M1-80 cells assessed as effect on mitoxantrone-induced cytotoxicity by measuring mitoxantrone IC50 at 3 uM after 72 hrs by MTT assay (Rvb = 73.62 +/- 7.20 uM)"}, "[18]": {"experiment": "Reversal of human ABCG2-mediated multidrug resistance in HEK293/R482 cells assessed as effect on mitoxantrone-induced cytotoxicity by measuring mitoxantrone IC50 at 2 uM after 72 hrs by CCK8 assay (Rvb = 50.66 +/- 6.88 nM)"}, "[19]": {"experiment": "Reversal of ABCG2 (unknown origin)-mediated multidrug resistance in human S1-M1-80 cells assessed as effect on topotecan-induced cytotoxicity by measuring topotecan IC50 at 1 uM after 72 hrs by MTT assay (Rvb = 10.14 +/- 2.820 uM)"}, "[20]": {"experiment": "Reversal of human ABCC1-mediated multidrug resistance in HEK293/MRP1 cells assessed as effect on etoposide-induced cytotoxicity by measuring etoposide IC50 at 0.5 uM after 72 hrs by CCK8 assay (Rvb = 63.34 +/- 7.92 uM)"}, "[21]": {"experiment": "Reversal of ABCG2 (unknown origin)-mediated multidrug resistance in human S1-M1-80 cells assessed as effect on topotecan-induced cytotoxicity by measuring topotecan IC50 at 3 uM after 72 hrs by MTT assay (Rvb = 10.14 +/- 2.820 uM)"}, "[22]": {"experiment": "Reversal of human ABCG2-mediated multidrug resistance in HEK293/R482 cells assessed as effect on topotecan-induced cytotoxicity by measuring topotecan IC50 at 0.5 uM after 72 hrs by CCK8 assay (Rvb = 201.31 +/- 25.89 nM)"}, "[23]": {"experiment": "Reversal of human ABCC1-mediated multidrug resistance in HEK293/MRP1 cells assessed as effect on etoposide-induced cytotoxicity by measuring etoposide IC50 at 2 uM after 72 hrs by CCK8 assay (Rvb = 63.34 +/- 7.92 uM)"}, "[24]": {"experiment": "Reversal of ABCG2 (unknown origin)-mediated multidrug resistance in human S1-M1-80 cells assessed as effect on mitoxantrone-induced cytotoxicity by measuring mitoxantrone IC50 at 2 uM after 72 hrs by MTT assay (Rvb = 73.62 +/- 7.20 uM)"}, "[25]": {"experiment": "Reversal of human ABCC1-mediated multidrug resistance in HEK293/MRP1 cells assessed as effect on etoposide-induced cytotoxicity by measuring etoposide IC50 at 3 uM after 72 hrs by CCK8 assay (Rvb = 63.34 +/- 7.92 uM)"}, "[26]": {"experiment": "Reversal of human ABCG2-mediated multidrug resistance in HEK293/R482 cells assessed as effect on topotecan-induced cytotoxicity by measuring topotecan IC50 at 1 uM after 72 hrs by CCK8 assay (Rvb = 201.31 +/- 25.89 nM)"}, "[27]": {"experiment": "Reversal of ABCG2 (unknown origin)-mediated multidrug resistance in human S1-M1-80 cells assessed as effect on topotecan-induced cytotoxicity by measuring topotecan IC50 at 0.5 uM after 72 hrs by MTT assay (Rvb = 10.14 +/- 2.820 uM)"}, "[28]": {"experiment": "Reversal of ABCG2 (unknown origin)-mediated multidrug resistance in human S1-M1-80 cells assessed as effect on mitoxantrone-induced cytotoxicity by measuring mitoxantrone IC50 at 1 uM after 72 hrs by MTT assay (Rvb = 73.62 +/- 7.20 uM)"}}}
{"molecule": "C=CC(C)(C)c1cc(/C=C/C(=O)c2ccc(O)cc2)c(OC)cc1O", "note": "[3-(4-hydroxy-2-methoxy-5-(2-methylbut-3-en-2-yl)phenyl)-1-(4-hydroxyphenyl)prop-2-en-1-one]", "values": [{"measurement": "IC50", "setting": "[1]", "value": 0.019, "unit": "µM"}, {"measurement": "IC50", "setting": "[2]", "value": 0.044, "unit": "µM"}, {"measurement": "IC50", "setting": "[3]", "value": 0.367, "unit": "µM"}, {"measurement": "IC50", "setting": "[4]", "value": 0.075, "unit": "µM"}, {"measurement": "IC50", "setting": "[5]", "value": 39.5, "unit": "µM"}, {"measurement": "IC50", "setting": "[6]", "value": 0.086, "unit": "µM"}, {"measurement": "IC50", "setting": "[7]", "value": 0.0062, "unit": "µM"}, {"measurement": "IC50", "setting": "[8]", "value": 0.07, "unit": "µM"}, {"measurement": "IC50", "setting": "[9]", "value": 0.148, "unit": "µM"}, {"measurement": "IC50", "setting": "[10]", "value": 0.442, "unit": "µM"}, {"measurement": "IC50", "setting": "[11]", "value": 0.0071, "unit": "µM"}, {"measurement": "IC50", "setting": "[12]", "value": 0.13, "unit": "µM"}, {"measurement": "IC50", "setting": "[13]", "value": 0.41, "unit": "µM"}, {"measurement": "IC50", "setting": "[14]", "value": 49.3, "unit": "µM"}, {"measurement": "IC50", "setting": "[15]", "value": 0.042, "unit": "µM"}, {"measurement": "IC50", "setting": "[16]", "value": 0.144, "unit": "µM"}, {"measurement": "IC50", "setting": "[17]", "value": 1.53, "unit": "µM"}, {"measurement": "IC50", "setting": "[18]", "value": 0.0078, "unit": "µM"}, {"measurement": "IC50", "setting": "[19]", "value": 0.61, "unit": "µM"}, {"measurement": "IC50", "setting": "[20]", "value": 53.6, "unit": "µM"}, {"measurement": "IC50", "setting": "[21]", "value": 0.31, "unit": "µM"}, {"measurement": "IC50", "setting": "[22]", "value": 0.09, "unit": "µM"}, {"measurement": "IC50", "setting": "[23]", "value": 66.7, "unit": "µM"}, {"measurement": "IC50", "setting": "[24]", "value": 2.63, "unit": "µM"}, {"measurement": "IC50", "setting": "[25]", "value": 56.5, "unit": "µM"}, {"measurement": "IC50", "setting": "[26]", "value": 0.051, "unit": "µM"}, {"measurement": "IC50", "setting": "[27]", "value": 1.03, "unit": "µM"}, {"measurement": "IC50", "setting": "[28]", "value": 6.8, "unit": "µM"}]}
